# Assay results published in patent publication US9918479B2, “Control of phytopathogenic microorganisms with Pseudomonas sp. and substances and compositions derived therefrom” (priority 2012, dated 2018).
# Test system: CL145A (ATCC 55799)
# Experiment: Antibiotic resistance profile, antibiotic discs on Mueller-Hinton agar
# Conditions: 72 hours incubation
# Description: One glycerol stock vial of CL145A was equally distributed onto Mueller-Hinton Agar plates (100 μl per plate) and spread on the plate using a sterile cell spreader. Antibiotic discs were then placed onto the plates along with a blank sterile disc. Plates were incubated at 25° C. in the dark for 72 hours.
row,Compound,CL145A resistant or sensitive to the antibiotic (growth inhibited by the antibiotic disc)
1,CC1(C)S[C@@H]2[C@H](NC(=O)[C@H](N)c3ccccc3)C(=O)N2[C@H]1C(=O)O [Ampicillin],resistant
2,CO/N=C(\C(=O)N[C@@H]1C(=O)N2C(C(=O)O)=C(COC(N)=O)CS[C@H]12)c1ccco1 [Cefuroxime],resistant
3,O=C(N[C@H](CO)[C@H](O)c1ccc([N+](=O)[O-])cc1)C(Cl)Cl [Chloramphenicol],resistant
4,CC[C@H]1OC(=O)[C@H](C)[C@@H](O[C@H]2C[C@@](C)(OC)[C@@H](O)[C@H](C)O2)[C@H](C)[C@@H](O[C@@H]2O[C@H](C)C[C@H](N(C)C)[C@H]2O)[C@](C)(O)C[C@@H](C)C(=O)[C@H](C)[C@@H](O)[C@]1(C)O [Erythromycin],resistant
5,CCN1CCN(C(=O)N[C@@H](C(=O)N[C@@H]2C(=O)N3[C@@H]2SC(C)(C)[C@@H]3C(=O)O)c2ccccc2)C(=O)C1=O [Piperacillin],sensitive
6,[H]/N=C(/N)N[C@H]1[C@H](O)[C@@H](O)[C@H](O[C@@H]2O[C@@H](C)[C@](O)(C=O)[C@H]2O[C@@H]2O[C@@H](CO)[C@H](O)[C@@H](O)[C@@H]2NC)[C@@H](N/C(N)=N\[H])[C@@H]1O [Streptomycin],resistant
7,Gentamicin,sensitive
8,Penicillin,resistant
